According to US11787785B2 (NOVARTIS AG, priority 2021, dated 2023):

Molecular target: T1, WIZ protein (HiBit-WIZ fusion protein) (Homo sapiens, UniProt O95785+Q96SW2)
T1 construct: expressed in transfected cells
Assay: Quantification of WIZ protein levels in HiBit tag fusion protein assay (WIZ HiBit assay in 293T cells)
Assay type: cell-based
Details: for Dmax at 25 µM / remaining activity at 25 µM: HEK-293T, 293T cells; for Dmax at 25 µM: 100 − Amax, read-out: % degradation of WIZ (100 − Amax); for remaining activity at 25 µM: DMSO-normalized, curve-fitted percentage of WIZ-HiBit remaining at 25 uM, read-out: WIZ Amax; for DC50: WIZ HiBit assay in 293T cells, 10-point, 5-fold dose response, highest concentration 25 μM, about 18 hours, read-out: WIZ AC50
Procedure, shortened: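 HiBit-tagged WIZ (N-terminal tag, HSVTK promoter) stably expressed single-copy in 293T cells; 10-point 1:5 compound series, top 25 μM, ~18 h at 37 °C. Lytic HiBit/LgBit luminescence read; Amax = curve-fitted % WIZ-HiBit remaining at 25 μM, DMSO normalized to 100%.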

T1 sequence (O95785 whole entry, the tested form may be a part): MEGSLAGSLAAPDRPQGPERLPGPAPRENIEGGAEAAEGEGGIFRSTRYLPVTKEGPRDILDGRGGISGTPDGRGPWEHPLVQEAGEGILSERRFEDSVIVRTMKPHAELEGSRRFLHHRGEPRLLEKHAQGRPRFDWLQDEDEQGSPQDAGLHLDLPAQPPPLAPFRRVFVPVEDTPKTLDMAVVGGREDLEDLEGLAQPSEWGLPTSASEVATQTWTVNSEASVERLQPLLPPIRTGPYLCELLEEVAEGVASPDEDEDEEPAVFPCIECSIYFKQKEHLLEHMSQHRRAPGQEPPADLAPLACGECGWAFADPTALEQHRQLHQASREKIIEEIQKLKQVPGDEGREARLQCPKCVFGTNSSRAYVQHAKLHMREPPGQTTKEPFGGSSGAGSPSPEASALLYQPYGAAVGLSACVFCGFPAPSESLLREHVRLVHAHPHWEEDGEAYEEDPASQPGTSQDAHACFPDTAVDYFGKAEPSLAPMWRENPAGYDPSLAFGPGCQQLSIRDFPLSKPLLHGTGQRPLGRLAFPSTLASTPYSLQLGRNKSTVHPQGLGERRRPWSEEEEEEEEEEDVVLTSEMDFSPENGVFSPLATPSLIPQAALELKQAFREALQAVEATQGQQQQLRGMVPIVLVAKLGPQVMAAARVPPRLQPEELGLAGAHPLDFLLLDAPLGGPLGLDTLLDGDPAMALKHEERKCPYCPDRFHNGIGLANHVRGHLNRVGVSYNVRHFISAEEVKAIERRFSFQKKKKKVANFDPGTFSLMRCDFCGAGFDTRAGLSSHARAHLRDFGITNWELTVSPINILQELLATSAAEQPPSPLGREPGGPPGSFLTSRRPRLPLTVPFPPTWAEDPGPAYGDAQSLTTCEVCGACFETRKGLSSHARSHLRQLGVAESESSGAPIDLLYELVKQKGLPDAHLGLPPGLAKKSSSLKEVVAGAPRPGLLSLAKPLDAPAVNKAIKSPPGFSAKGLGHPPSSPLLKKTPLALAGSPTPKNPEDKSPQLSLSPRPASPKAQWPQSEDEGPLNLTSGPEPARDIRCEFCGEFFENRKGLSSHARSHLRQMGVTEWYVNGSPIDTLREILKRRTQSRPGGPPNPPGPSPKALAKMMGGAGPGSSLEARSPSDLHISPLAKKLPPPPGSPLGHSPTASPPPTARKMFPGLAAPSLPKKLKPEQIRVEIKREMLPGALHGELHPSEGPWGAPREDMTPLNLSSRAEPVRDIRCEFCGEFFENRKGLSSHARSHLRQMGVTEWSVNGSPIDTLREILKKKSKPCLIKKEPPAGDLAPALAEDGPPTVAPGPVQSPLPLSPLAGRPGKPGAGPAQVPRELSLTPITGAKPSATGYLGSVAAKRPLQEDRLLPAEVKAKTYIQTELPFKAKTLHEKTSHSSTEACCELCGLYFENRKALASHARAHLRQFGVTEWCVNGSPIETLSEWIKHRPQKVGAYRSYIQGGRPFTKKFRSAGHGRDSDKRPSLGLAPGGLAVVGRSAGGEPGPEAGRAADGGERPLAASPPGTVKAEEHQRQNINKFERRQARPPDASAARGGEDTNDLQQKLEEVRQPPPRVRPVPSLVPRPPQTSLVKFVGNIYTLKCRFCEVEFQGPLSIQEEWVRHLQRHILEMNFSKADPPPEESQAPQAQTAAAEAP
T1 sequence (Q96SW2 whole entry, the tested form may be a part): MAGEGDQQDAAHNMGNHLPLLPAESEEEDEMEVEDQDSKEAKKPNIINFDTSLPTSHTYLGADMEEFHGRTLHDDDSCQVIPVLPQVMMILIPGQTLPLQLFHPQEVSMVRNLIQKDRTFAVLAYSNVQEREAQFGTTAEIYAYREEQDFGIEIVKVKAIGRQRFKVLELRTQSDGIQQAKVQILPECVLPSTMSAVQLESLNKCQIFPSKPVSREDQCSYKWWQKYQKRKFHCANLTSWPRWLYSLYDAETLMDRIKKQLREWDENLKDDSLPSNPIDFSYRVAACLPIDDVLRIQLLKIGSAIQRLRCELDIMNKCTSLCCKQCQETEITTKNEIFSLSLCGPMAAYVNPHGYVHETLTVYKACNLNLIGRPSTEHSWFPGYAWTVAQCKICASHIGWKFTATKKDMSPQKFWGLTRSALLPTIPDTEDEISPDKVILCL
T1 sequence (Q16531 whole entry partner, the tested form may be a part): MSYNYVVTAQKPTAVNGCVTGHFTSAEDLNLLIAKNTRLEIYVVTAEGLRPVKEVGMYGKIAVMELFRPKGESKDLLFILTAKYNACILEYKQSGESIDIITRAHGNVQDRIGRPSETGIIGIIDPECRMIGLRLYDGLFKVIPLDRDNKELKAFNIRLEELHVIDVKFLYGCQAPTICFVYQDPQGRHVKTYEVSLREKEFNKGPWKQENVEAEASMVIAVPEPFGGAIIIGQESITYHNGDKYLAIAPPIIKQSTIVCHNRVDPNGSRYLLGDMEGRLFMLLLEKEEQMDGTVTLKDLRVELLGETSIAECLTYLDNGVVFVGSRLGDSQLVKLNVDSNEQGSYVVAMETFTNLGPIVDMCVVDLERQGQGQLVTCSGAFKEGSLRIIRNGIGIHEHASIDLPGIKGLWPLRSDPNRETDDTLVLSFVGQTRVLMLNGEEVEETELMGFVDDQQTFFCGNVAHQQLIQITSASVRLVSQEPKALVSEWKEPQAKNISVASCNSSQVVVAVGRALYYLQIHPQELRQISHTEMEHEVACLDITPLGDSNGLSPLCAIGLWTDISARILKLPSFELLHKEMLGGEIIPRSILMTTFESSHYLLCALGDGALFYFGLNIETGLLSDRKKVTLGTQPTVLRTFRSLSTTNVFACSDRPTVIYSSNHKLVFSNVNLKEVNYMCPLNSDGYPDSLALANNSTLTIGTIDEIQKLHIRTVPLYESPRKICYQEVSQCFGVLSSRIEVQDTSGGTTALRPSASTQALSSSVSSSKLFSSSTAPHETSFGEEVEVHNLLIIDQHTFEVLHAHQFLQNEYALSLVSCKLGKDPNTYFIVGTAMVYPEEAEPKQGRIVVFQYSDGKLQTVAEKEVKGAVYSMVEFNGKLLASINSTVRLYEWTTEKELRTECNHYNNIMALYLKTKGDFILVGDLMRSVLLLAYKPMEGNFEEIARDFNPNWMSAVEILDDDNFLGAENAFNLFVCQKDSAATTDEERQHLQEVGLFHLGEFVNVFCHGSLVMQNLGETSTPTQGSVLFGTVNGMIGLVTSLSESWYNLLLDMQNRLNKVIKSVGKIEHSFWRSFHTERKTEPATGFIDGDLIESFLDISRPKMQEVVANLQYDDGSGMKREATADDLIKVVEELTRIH

Row | Dmax at 25 µM | remaining activity at 25 µM | DC50 | Compound
1 | 86% | 14% | 31 nM | C[C@H]1CN(Cc2ccn3ncc(N4CCC(=O)NC4=O)c3c2)CCN1CC1(C)CCC1 [Example 322, (S)-1-(5-((3-methyl-4-((1-methylcyclobutyl)methyl)piperazin-1-yl)methyl)pyrazolo[1,5-a]pyridin-3-yl)dihydropyrimidine-2,4(1H,3H)-dione]
2 | 86% | 14% | 128 nM | CC(C)CN1CCN(Cc2ccn3ncc(-n4cc(F)c(=O)[nH]c4=O)c3c2)C[C@@H]1C [Example 358, (S)-5-fluoro-1-(5-((4-isobutyl-3-methylpiperazin-1-yl)methyl)pyrazolo[1,5-a]pyridin-3-yl)pyrimidine-2,4(1H,3H)-dione]
3 | 87% | 13% | 68 nM | C[C@H]1CN(Cc2ccn3ncc(N4CCC(=O)NC4=O)c3c2)CCN1C1CCCCC1 [Example 333]
4 | 80% | 20% | 46 nM | CO[C@H]1C[C@@H](CN2CC[C@@H](Cc3ccn4ncc(N5CCC(=O)NC5=O)c4c3)C[C@@H]2C)C1 [Example 303, 1-(5-(((2S,4R)-1-(((1s,3R)-3-methoxycyclobutyl)methyl)-2-methylpiperidin-4-yl)methyl)pyrazolo[1,5-a]pyridin-3-yl)dihydropyrimidine-2,4(1H,3H)-dione]
5 | 72% | 28% | 108 nM | C[C@H]1CN(Cc2ccn3ncc(N4CCC(=O)NC4=O)c3c2)CCN1CC1CCO1 (stereo partly drawn) [Example 324, 1-(5-(((3S)-3-methyl-4-(oxetan-2-ylmethyl)piperazin-1-yl)methyl)pyrazolo[1,5-a]pyridin-3-yl)dihydropyrimidine-2,4(1H,3H)-dione]
6 | 38% | 62% | 1400 nM | O=C1CCN(c2cnn3ccc(CN4CCN(Cc5ccncc5)CC4)cc23)C(=O)N1 [Example 176]

More lines, now with the values behind:

Row | Compound | Dmax at 25 µM | remaining activity at 25 µM | DC50
7 | CC(C)CN1CC(Cc2ccn3ncc(N4CCC(=O)NC4=O)c3c2)C1 [Example 134, 1-(5-((1-isobutylazetidin-3-yl)methyl)pyrazolo[1,5-a]pyridin-3-yl)dihydropyrimidine-2,4(1H,3H)-dione] | 27% | 73% | 4300 nM
8 | O=C1CCN(c2cnn3ccc(CC4CCN(Cc5cccc(F)c5)CC4)cc23)C(=O)N1 [Example 22, 1-(5-((1-(3-fluorobenzyl)piperidin-4-yl)methyl)pyrazolo[1,5-a]pyridin-3-yl)dihydropyrimidine-2,4(1H,3H)-dione] | 77% | 23% | 71 nM
9 | O=C1CCN(c2cnn3ccc(CC4CCN(Cc5ccc(C(F)(F)F)nc5)CC4)cc23)C(=O)N1 [Example 54, 1-(5-((1-((6-(trifluoromethyl)pyridin-3-yl)methyl)piperidin-4-yl)methyl)pyrazolo[1,5-a]pyridin-3-yl)dihydropyrimidine-2,4(1H,3H)-dione] | 64% | 36% | 44 nM
10 | O=C1CCN(c2cnn3ccc(CC4CCN(Cc5ccccc5F)CC4)cc23)C(=O)N1 [Example 38, 1-(5-((1-(2-fluorobenzyl)piperidin-4-yl)methyl)pyrazolo[1,5-a]pyridin-3-yl)dihydropyrimidine-2,4(1H,3H)-dione] | 71% | 29% | 112 nM
11 | CC1(CN2CCC(Cc3ccn4ncc(N5CCC(=O)NC5=O)c4c3)CC2)COC1 [Example 118, 1-(5-((1-((3-methyloxetan-3-yl)methyl)piperidin-4-yl)methyl)pyrazolo[1,5-a]pyridin-3-yl)dihydropyrimidine-2,4(1H,3H)-dione] | 64% | 36% | 166 nM
12 | O=C1CCN(c2cnn3ccc(CC4CCN(Cc5cccc(F)c5)C4)cc23)C(=O)N1 (stereo not drawn) [Example 131] | 38% | 62% | 370 nM
